Test results published in patent US9532990B2 (Zhejiang DTRM Biopharma Co. Ltd., priority 2014, dated 2017).
pIC50: −log10 of the molar value. Read-outs that look alike come from different tables or passages of the source.

Biological target: BTK wild type (Homo sapiens (Human), UniProt Q06187)
Assay: Inhibition assay of BTK kinase activity (HTRF)
Assay type: biochemical
Description: Inhibition Assay of BTK Kinase Activity:
The enzyme reaction mixture of BTK wild type standard HTRF assay contained 1 nM BTK wild type, 1 μM biotin-TK1 peptide, and 30 μM ATP in a buffer. The enzyme reaction were carried out at room temperature for 60 minutes. […] The plates were incubated at room temperature for 60 minutes and then read in the Envision plate reader.

[1] = all compounds with IC50 of less 10 nM, read-out: IC50 (BTK)

Sequence of BTK wild type (Q06187 whole entry): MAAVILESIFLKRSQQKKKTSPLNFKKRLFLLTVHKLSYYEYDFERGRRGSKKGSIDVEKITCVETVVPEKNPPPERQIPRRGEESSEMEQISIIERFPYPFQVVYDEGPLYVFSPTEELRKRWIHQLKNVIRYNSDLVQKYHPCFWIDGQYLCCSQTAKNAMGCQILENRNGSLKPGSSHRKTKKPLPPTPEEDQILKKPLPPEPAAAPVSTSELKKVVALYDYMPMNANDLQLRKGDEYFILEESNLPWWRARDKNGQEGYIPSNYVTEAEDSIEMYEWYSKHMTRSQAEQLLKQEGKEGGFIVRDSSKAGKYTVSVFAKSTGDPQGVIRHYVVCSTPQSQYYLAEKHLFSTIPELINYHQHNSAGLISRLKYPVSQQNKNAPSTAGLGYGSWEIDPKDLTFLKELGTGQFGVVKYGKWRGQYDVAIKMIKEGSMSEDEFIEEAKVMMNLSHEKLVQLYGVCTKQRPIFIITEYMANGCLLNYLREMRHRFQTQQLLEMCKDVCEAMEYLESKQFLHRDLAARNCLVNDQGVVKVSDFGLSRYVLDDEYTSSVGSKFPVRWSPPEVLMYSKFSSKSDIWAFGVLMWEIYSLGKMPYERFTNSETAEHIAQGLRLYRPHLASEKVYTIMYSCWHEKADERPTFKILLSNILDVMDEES

Row | SMILES | pIC50 (read-out: BTK IC50) | pIC50 | pIC50 [1]
1 | C/C(O)=C(/C#N)C(=O)N1CCCC(n2nc(-c3ccc(C(=O)c4cccc(F)c4)cc3F)c3c(N)ncnc32)C1 (centres unmarked) [Compound 7, (E)-2-(3-(4-amino-3-(2-fluoro-4-(3-fluorobenzoyl)phenyl)-1H-pyrazolo[3,4-d]pyrimidin-1-yl)piperidine-1-carbonyl)-3-hydroxybut-2-enenitrile] | 6.14 | – | –
2 | C=CC(=O)NC(C)(C)Cn1nc(-c2ccc(Oc3c(F)c(F)cc(F)c3F)cc2F)c2c(N)ncnc21 [Compound 87, N-(1-(4-amino-3-(2-fluoro-4-(2,3,5,6-tetrafluorophenoxy)phenyl)-1H-pyrazolo[3,4-d]pyrimidin-1-yl)-2-methylpropan-2-yl)acrylamide] | 8.10 | > 8.00 | –
3 | Nc1ncnc2c1c(-c1ccc(Oc3c(F)c(F)cc(F)c3F)cc1F)nn2[C@@H]1CCN(C(=O)CF)C1 [Compound 111, 1-((R)-3-(4-amino-3-(2-fluoro-4-(2,3,5,6-tetrafluorophenoxy)phenyl)-1H-pyrazolo[3,4-d]pyrimidin-1-yl)pyrrolidin-1-yl)-2-fluoroethanone] | 7.37 | – | –
4 | N#C/C=C\C(=O)N1CC[C@@H](n2nc(-c3ccc(Oc4c(F)c(F)cc(F)c4F)cc3F)c3c(N)ncnc32)C1 [Compound 98, (Z)-4-((R)-3-(4-amino-3-(2-fluoro-4-(2,3,5,6-tetrafluorophenoxy)phenyl)-1H-pyrazolo[3,4-d]pyrimidin-1-yl)pyrrolidin-1-yl)-4-oxobut-2-enenitrile] | 8.70 | – | > 8.00
5 | CC(C)(CO)C(=O)C(=O)N1CC[C@@H](n2nc(-c3ccc(Oc4c(F)c(F)cc(F)c4F)cc3F)c3c(N)ncnc32)C1 [Compound 80, 1-((R)-3-(4-amino-3-(2-fluoro-4-(2,3,5,6-tetrafluorophenoxy)phenyl)-1H-pyrazolo[3,4-d]pyrimidin-1-yl)pyrrolidin-1-yl)-4-hydroxy-3,3-dimethylbutane-1,2-dione] | 5.89 | – | –
6 | C=CC(=O)N1CCCC(n2nc(-c3ccc(Oc4c(F)c(F)cc(F)c4F)cc3F)c3c(N)ncnc32)C1 (centres unmarked) [Compound 11, 1-(3-(4-amino-3-(2-fluoro-4-(2,3,5,6-tetrafluorophenoxy)phenyl)-1H-pyrazolo[3,4-d]pyrimidin-1-yl)piperidin-1-yl)prop-2-en-1-one] | 9.10 | – | > 8.00
7 | C=CC(=O)N(C)CCn1nc(-c2ccc(Oc3c(F)c(F)cc(F)c3F)cc2F)c2c(N)ncnc21 [Compound 85, N-(2-(4-amino-3-(2-fluoro-4-(2,3,5,6-tetrafluorophenoxy)phenyl)-1H-pyrazolo[3,4-d]pyrimidin-1-yl)ethyl)-N-methylacrylamide] | 7.77 | – | –
8 | C=CC(=O)N1CCCC(n2nc(-c3ccc(Oc4cccc(NS(C)(=O)=O)c4)cc3F)c3c(N)ncnc32)C1 (centres unmarked) [Compound 20, N-(3-(4-(1-(1-acryloylpiperidin-3-yl)-4-amino-1H-pyrazolo[3,4-d]pyrimidin-3-yl)-3-fluorophenoxy)phenyl)methanesulfonamide] | 8.40 | – | > 8.00
9 | C=CC(=O)N1CC[C@@H](n2nc(-c3ccc(Oc4ncccn4)cc3F)c3c(N)ncnc32)C1 [Compound 95, 1-((R)-3-(4-amino-3-(2-fluoro-4-(pyrimidin-2-yloxy)phenyl)-1H-pyrazolo[3,4-d]pyrimidin-1-yl)pyrrolidin-1-yl)prop-2-en-1-one] | 8.30 | – | > 8.00
10 | N#CCN1CC[C@@H](n2nc(-c3ccc(Oc4c(F)c(F)cc(F)c4F)cc3F)c3c(N)ncnc32)C1 [Compound 113, 2-((R)-3-(4-amino-3-(2-fluoro-4-(2,3,5,6-tetrafluorophenoxy)phenyl)-1H-pyrazolo[3,4-d]pyrimidin-1-yl)pyrrolidin-1-yl)acetonitrile] | 6.68 | – | –
11 | C=CC(=O)N1CCCC(n2nc(-c3ccc(Oc4cccc(F)c4)cc3F)c3c(N)ncnc32)C1 (centres unmarked) [Compound 18, 1-(3-(4-amino-3-(2-fluoro-4-(3-fluorophenoxy)phenyl)-1H-pyrazolo[3,4-d]pyrimidin-1-yl)piperidin-1-yl)prop-2-en-1-one] | 8.52 | – | > 8.00
12 | C=CC(=O)N[C@H]1CC[C@H](n2nc(-c3ccc(Oc4cccc(F)c4)cc3F)c3c(N)ncnc32)CC1 [Compound 14, N-((1r,4r)-4-(4-amino-3-(2-fluoro-4-(3-fluorophenoxy)phenyl)-1H-pyrazolo[3,4-d]pyrimidin-1-yl)cyclohexyl)acrylamide] | 8.05 | – | –
13 | CNC(=O)N1CCCC(n2nc(-c3ccc(Oc4c(F)c(F)cc(F)c4F)cc3F)c3c(N)ncnc32)C1 (centres unmarked) [Compound 52, 3-(4-amino-3-(2-fluoro-4-(2,3,5,6-tetrafluorophenoxy)phenyl)-1H-pyrazolo[3,4-d]pyrimidin-1-yl)-N-methylpiperidine-1-carboxamide] | 7.22 | – | –
14 | CNC(=O)/C=C/C(=O)N1CCCC(n2nc(-c3ccc(Oc4c(F)c(F)cc(F)c4F)cc3F)c3c(N)ncnc32)C1 (centres unmarked) [Compound 42, (E)-4-(3-(4-amino-3-(2-fluoro-4-(2,3,5,6-tetrafluorophenoxy)phenyl)-1H-pyrazolo[3,4-d]pyrimidin-1-yl)piperidin-1-yl)-N-methyl-4-oxobut-2-enamide] | 7.42 | – | –
15 | CNC(=O)/C=C/CNC(=O)N1CC[C@@H](n2nc(-c3ccc(Oc4c(F)c(F)cc(F)c4F)cc3F)c3c(N)ncnc32)C1 [Compound 76, (3R)-3-(4-amino-3-(2-fluoro-4-(2,3,5,6-tetrafluorophenoxy)phenyl)-1H-pyrazolo[3,4-d]pyrimidin-1-yl)-N-(4-(methylamino)-4-oxobut-2-enyl)pyrrolidine-1-carboxamide] | 7.57 | – | –
16 | C=CC(=O)N(C)CCCn1nc(-c2ccc(Oc3c(F)c(F)cc(F)c3F)cc2F)c2c(N)ncnc21 [Compound 86, N-(3-(4-amino-3-(2-fluoro-4-(2,3,5,6-tetrafluorophenoxy)phenyl)-1H-pyrazolo[3,4-d]pyrimidin-1-yl)propyl)-N-methylacrylamide] | 8.10 | – | –
17 | Nc1ncnc2c1c(-c1ccc(Oc3c(F)c(F)cc(F)c3F)cc1F)nn2CCN1C(=O)C=CC1=O [Compound 51, 1-(2-(4-amino-3-(2-fluoro-4-(2,3,5,6-tetrafluorophenoxy)phenyl)-1H-pyrazolo[3,4-d]pyrimidin-1-yl)ethyl)-1H-pyrrole-2,5-dione] | 6.28 | – | –
18 | Nc1ncnc2c1c(-c1ccc(Oc3c(F)c(F)cc(F)c3F)cc1F)nn2[C@@H]1CCN(C(=O)CCl)C1 [Compound 75, 1-((R)-3-(4-amino-3-(2-fluoro-4-(2,3,5,6-tetrafluorophenoxy)phenyl)-1H-pyrazolo[3,4-d]pyrimidin-1-yl)pyrrolidin-1-yl)-2-chloroethanone] | 8.52 | > 8.00 | –
19 | C=CC(=O)N[C@H]1CC[C@@H](n2nc(-c3ccc(Oc4c(F)c(F)cc(F)c4F)cc3F)c3c(N)ncnc32)CC1 [Compound 22, N-((1s,4s)-4-(4-amino-3-(2-fluoro-4-(2,3,5,6-tetrafluorophenoxy)phenyl)-1H-pyrazolo[3,4-d]pyrimidin-1-yl)cyclohexyl)acrylamide] | 7.30 | – | –
20 | Nc1ncnc2c1c(-c1ccc(Oc3c(F)c(F)cc(F)c3F)cc1F)nn2[C@@H]1CCCN(C(=O)CF)C1 [Compound 107, 1-((R)-3-(4-amino-3-(2-fluoro-4-(2,3,5,6-tetrafluorophenoxy)phenyl)-1H-pyrazolo[3,4-d]pyrimidin-1-yl)piperidin-1-yl)-2-fluoroethanone] | 7.00 | – | –
21 | N#CN1CC[C@@H](n2nc(-c3ccc(Oc4c(F)c(F)cc(F)c4F)cc3F)c3c(N)ncnc32)C1 [Compound 118] | 7.24 | – | –
22 | CN(C)C/C=C/C(=O)N1CC[C@@H](n2nc(-c3ccc(Oc4c(F)c(F)cc(F)c4F)cc3F)c3c(N)ncnc32)C1 [Compound 91, (E)-1-((R)-3-(4-amino-3-(2-fluoro-4-(2,3,5,6-tetrafluorophenoxy)phenyl)-1H-pyrazolo[3,4-d]pyrimidin-1-yl)pyrrolidin-1-yl)-4-(dimethylamino)but-2-en-1-one] | 8.52 | – | > 8.00
23 | C=CC(=O)N1CC[C@@H](n2nc(-c3ccc(Oc4cccc(F)c4)cc3F)c3c(N)ncnc32)C1 [Compound 94, 1-((R)-3-(4-amino-3-(2-fluoro-4-(3-fluorophenoxy)phenyl)-1H-pyrazolo[3,4-d]pyrimidin-1-yl)pyrrolidin-1-yl)prop-2-en-1-one] | 9.00 | – | > 8.00
24 | CC(=O)CC(=O)N1CCCC(n2nc(-c3ccc(Oc4c(F)c(F)cc(F)c4F)cc3F)c3c(N)ncnc32)C1 (centres unmarked) [Compound 44, 1-(3-(4-amino-3-(2-fluoro-4-(2,3,5,6-tetrafluorophenoxy)phenyl)-1H-pyrazolo[3,4-d]pyrimidin-1-yl)piperidin-1-yl)butane-1,3-dione] | 6.43 | – | –
25 | CNC(=O)C(=O)N1CCCC(n2nc(-c3ccc(Oc4c(F)c(F)cc(F)c4F)cc3F)c3c(N)ncnc32)C1 (centres unmarked) [Compound 57, 2-(3-(4-amino-3-(2-fluoro-4-(2,3,5,6-tetrafluorophenoxy)phenyl)-1H-pyrazolo[3,4-d]pyrimidin-1-yl)piperidin-1-yl)-N-methyl-2-oxoacetamide] | 6.16 | – | –
26 | Nc1ncnc2c1c(-c1ccc(Oc3c(F)c(F)cc(F)c3F)cc1F)nn2[C@@H]1CCCN(C(=O)CCl)C1 [Compound 99, 1-((R)-3-(4-amino-3-(2-fluoro-4-(2,3,5,6-tetrafluorophenoxy)phenyl)-1H-pyrazolo[3,4-d]pyrimidin-1-yl)piperidin-1-yl)-2-chloroethanone] | 8.70 | – | > 8.00
27 | C=CC(=O)N1CC[C@@H](n2nc(-c3ccc(Oc4ccnc5ccccc45)cc3F)c3c(N)ncnc32)C1 [Compound 90, 1-((R)-3-(4-amino-3-(2-fluoro-4-(quinolin-4-yloxy)phenyl)-1H-pyrazolo[3,4-d]pyrimidin-1-yl)pyrrolidin-1-yl)prop-2-en-1-one] | 7.82 | – | –
28 | Nc1ncnc2c1c(-c1ccc(Oc3c(F)c(F)cc(F)c3F)cc1F)nn2[C@H]1CCCN(C(=O)C(Cl)Cl)C1 [Compound 102, 1-((S)-3-(4-amino-3-(2-fluoro-4-(2,3,5,6-tetrafluorophenoxy)phenyl)-1H-pyrazolo[3,4-d]pyrimidin-1-yl)piperidin-1-yl)-2,2-dichloroethanone] | 5.80 | – | –
